Patent US20220394981A1, “MICRONUTRIENT FORMULATIONS THAT CONTROL PLANT PATHOGENS” (priority 2021, published 2022)
Where two headings read alike, the source gives them in different places.

Experiments:
[1] = cited from earlier work
[2] = cited from earlier work; remark: listed apart in the source
[3] = cited from earlier work; remark: listed apart in the source
[4] = cited from earlier work; remark: listed apart in the source
[5] = cited from earlier work; remark: listed apart in the source
[6] = cited from earlier work; remark: listed apart in the source
[7] = test system: Ruby red grapefruit trees; assay: Tree growth versus untreated control, field trial; settings: in vivo
Description: (§1) Experimental testing was performed at the Florida Research Center for Agricultural Sustainability (“FLARES”) in Vero Beach, Fla. where the inventor, Robert C. Adair, Jr. serves as the executive director after having founded FLARES in 2004. Testing was conducted on a uniform block of ninety-six (96) Ruby red grapefruit trees planted on Dec. 19, 2018 grafted with USDA “US-897” citrus rootstock. The red grapefruit trees were randomly assigned one of eight (8) treatments in twelve (12) replicated plots using a Randomized Complete Block (“RCB”) design to help ensure homogeneous conditions between test subject trees. The red grapefruit trees were treated using liquid formulations applied to the foliage, the soil proximal to the rhizosphere of the plant, or applied to both the foliage and the soil. The micronutrient chelate formulations were applied monthly, the citric acid treatments were applied weekly, and the iron nitrate treatment was applied every two weeks.
Before being treated, the red grapefruit trees were allowed time to establish root systems. […] The caliper, canopy diameter, and height for each grapefruit tree was measured prior to treatment and subsequently measured every six (6) to nine (9) months thereafter for the two-and-half (2.5) year duration of the experiment.
Canopy areas were determined from aerial images captured by a camera-equipped unmanned aerial vehicle (“UAV”). […]

CLas bacteria = type: in vivo, Ruby red grapefruit trees
Description: as §1
(§2) Before being treated, the red grapefruit trees were allowed time to establish root systems. The red grapefruit trees were exposed to infection of the CLas bacteria through native populations of the Asian citrus psyllid insect, which is the vector that spreads citrus greening disease among trees. The caliper, canopy diameter, and height for each grapefruit tree was measured prior to treatment and subsequently measured every six (6) to nine (9) months thereafter for the two-and-half (2.5) year duration of the experiment.
Individual leaf samples were collected from each of the ninety-six (96) trees and submitted to Southern Gardens Diagnostic Laboratory in Clewiston, Fla. for Polymerase Chain Reaction (“PCR”) analysis to determine the presence of CLas bacteria DNA. The results were expressed cycle threshold (“Ct”) values, and the logarithm of the copy number per milligram of tissue values were recorded and statistically evaluated. In a PCR analysis, a positive reaction is detected by the accumulation of a fluorescent signal. The Ct value is defined as the number of cycles required for a fluorescent signal to cross a threshold (i.e., exceeds background levels). Ct values are inversely proportional to the amount of a target nucleic acid in the sample being tested such that the lower the Ct level, the greater the amount of target nucleic acid in the sample. Ct values less than 29 are considered strong positive reactions indicative of an abundance of the target nucleic acid, and Ct values of 38-40 are indicative of minimal amounts of target nucleic acid.

citrus greening disease = type: in vivo, Ruby red grapefruit trees; settings: for Percentage of Trees Showing HLB Leaf Patterns: 270 days after the first treatment application
Description: as §1, §2
Tree condition was scored visually according to the disease indexing (“DI”) technique taught by Gottwald, Aubert, and Xue-Yuan. See Gottwald, T. R., B. Aubert, and Z. Xue-Yuan, Preliminary Analysis of Citrus Greening (Huanglungbin) Epidemics in the People's Republic of China and French Reunion Island, PHYTOPATHOLOGY Vol. No. 79: 687-693 (1989). Disease indexing techniques divide an image of a plant into multiple sections and/or subsections, such as hemispheres and quadrants, and assign each image section a score from zero to four. The score reflects the observable severity of disease impact on a plant with a score of four indicating a plant with no visible symptoms and a score of zero indicating the highest level of severity. The score for all sections of a plant image are added together to establish an overall DI score for a particular plant image, such that a healthy vigorous tree with no symptoms has a DI of 16.
Table 5 below presents data from the visual inspection of the red grapefruit trees for the symptoms of citrus greening disease measured at 270 days after the first treatment application or approximately half way through the experiment.

[8] = treatments applied as in Table 1 (foliar and/or soil)
[9] = treatments applied as in Table 1 (foliar and/or soil), listed as Fe(III)EDDHA

Compound | LogK Ca2+ (stability constant) [1] | LogK Zn2+ (stability constant) [2] | LogK Fe3+ (stability constant) [3] | LogK Cu2+ (stability constant) [4] | LogK Fe2+ (stability constant) [5] | LogK Mn2+ (stability constant) [6] | also measured
O=C(O)CC(O)(CC(=O)O)C(=O)O [Citrate] | 4.7 | 4.9 | 11.85 | 5.9 | 3.2 | 3.7 | –
O=C(O)CN(CCN(CC(=O)O)CC(=O)O)CCN(CC(=O)O)CC(=O)O [DTPA, diethylenetriaminepentaacetic acid] | 10.7 | 18.3 | 28.6 | 21.1 | 16.5 | 15.1 | –
O=C(O)CN(CCN(CC(=O)O)CC(=O)O)CC(=O)O [EDTA] | 10.7 | 16.5 | 25.1 | 18.8 | – | 13.6 | –
O=C([O-])C(NCCNC(C(=O)[O-])c1ccccc1[O-])c1ccccc1[O-].[Fe+3].[Na+] (centres unmarked) [Fe-EDDHA] | – | – | 35.40 | – | – | – | tree growth versus an untreated control [7]: increased tree growth; % of PCR Analysis Showing No CLas (Ct values = 40) (CLas bacteria; [8]): 50%; Average Ct values based on qPCR analysis of citrus leaves (CLas bacteria; [8]): 34.9; Log Copy #/1 mg of Leaf Tissue (CLas bacteria; [8]): 1.2; % of PCR Analysis Showing No CLas (Ct values = 40) (CLas bacteria; [9]): highest percentage; Average Ct values based on qPCR analysis of citrus leaves (CLas bacteria; [9]): highest Ct values; Log Copy #/1 mg of Leaf Tissue (CLas bacteria; [9]): the lowest; Percentage of Trees Showing HLB Leaf Patterns (citrus greening disease; treatments as in Table 1): 10%; Percentage of Trees Showing HLB Leaf Patterns (citrus greening disease; treatments as in Table 1, listed as Fe(III)EDDHA): lowest percentage of observable symptoms; symptoms of citrus greening disease, visually and analytically (CLas bacteria by PCR) (citrus greening disease; foliar and soil application): reduced the symptoms of citrus greening disease; citrus greening disease leaf symptoms, visual inspection (citrus greening disease; infected grapefruit trees): reduced
O=C(O)[C@H](O)[C@@H](O)[C@H](O)[C@H](O)CO [Gluconate] | 1.2 | 1.7? | 10.0 | 36.0 | 1.0 | – | –
O=C(O)CN(CCN(CC(=O)O)Cc1ccccc1O)Cc1ccccc1O [HBED, N,N′-bis(2-hydroxyphenyl)ethylenediamine-N,N′-diacetic acid] | 9.3 | 18.3 | 39.0 | 21.4 | 17.3 | 16.5 | –
O=C(O)CN(CCO)CCN(CC(=O)O)CC(=O)O [HEDTA] | 8.1 | 14.6 | 19.7 | 17.4 | 12.2 | 11.1 | –
O=C(O)CN(CCO)CCN(CC(=O)O)CC(=O)O [HEEDTA] | 8.0 | 14.5 | 19.6 | 17.4 | 12.2 | 10.7 | –
O=C(O)CC(NC(CC(=O)O)C(=O)O)C(=O)O (centres unmarked) [IDHA, imidodisuccinic acid] | – | 10.8 | 15.2 | 13.1 | – | 7.7 | –
O=C(O)[C@@H](O)[C@@H](O)[C@H](O)[C@@H](O)C(=O)O [Saccharate] | – | – | 24.5 | 14.0 | – | 8.5 | –
Iron Citrate | – | – | – | – | 3.2 | – | % of PCR Analysis Showing No CLas (Ct values = 40) (CLas bacteria; at 30 ppm Fe, foliar): 0%; Average Ct values based on qPCR analysis of citrus leaves (CLas bacteria; at 30 ppm Fe, foliar): 29.7; Log Copy #/1 mg of Leaf Tissue (CLas bacteria; at 30 ppm Fe, foliar): 2.6; % of PCR Analysis Showing No CLas (Ct values = 40) (CLas bacteria; at 60 ppm Fe, foliar): 0%; Average Ct values based on qPCR analysis of citrus leaves (CLas bacteria; at 60 ppm Fe, foliar): 31.2; Log Copy #/1 mg of Leaf Tissue (CLas bacteria; at 60 ppm Fe, foliar): 2.1; Percentage of Trees Showing HLB Leaf Patterns (citrus greening disease; at 30 ppm Fe, foliar): 44%; Percentage of Trees Showing HLB Leaf Patterns (citrus greening disease; at 60 ppm Fe, foliar): 50%
